ChEMBL document CHEMBL3885881, “DrugMatrix”

Species: Rattus norvegicus
Assay: DrugMatrix - Regimen: Daily Repeat
Assay type: toxicity, organism-based, Sprague-Dawley
Parameters: regimen Daily Repeat, gender Male, age 6-8 weeks
Settings: in vivo, po, 0 mg/kg, route oral GAVAGE, dose level Control, […]; for ABSOLUTE BASOPHIL / ABSOLUTE EOSINOPHIL / ABSOLUTE LYMPHOCYTE / ABSOLUTE MONOCYTE / ABSOLUTE SEGMENTED NEUTROPHIL / BASOPHIL / EOSINOPHIL / ERYTHROCYTE COUNT / HEMATOCRIT / HEMOGLOBIN / LEUKOCYTE COUNT / LYMPHOCYTE / MEAN CORPUSCULAR HEMOGLOBIN / MEAN CORPUSCULAR HEMOGLOBIN CONCENTRATION / MEAN CORPUSCULAR VOLUME / MONOCYTE / NEUTROPHIL / NUCLEATED RED BLOOD CELLS / PLATELET COUNT: tissue Blood; for ALANINE AMINOTRANSFERASE / ALBUMIN / ALKALINE PHOSPHATASE / ASPARTATE AMINOTRANSFERASE / BLOOD UREA NITROGEN / CARBON DIOXIDE / CHLORIDE / CHOLESTEROL / CREATINE PHOSPHOKINASE / CREATININE / GLUCOSE / LACTATE DEHYDROGENASE / LIPASE / PHOSPHORUS / POTASSIUM / SODIUM / TOTAL BILIRUBIN / TOTAL PROTEIN / URIC ACID: tissue Plasma

What does the source list for `O=c1c(-c2ccc(O)cc2)coc2cc(O)cc(O)c12` [GENISTEIN]?
ABSOLUTE BASOPHIL (72 h, time 3 day): 0 CELLS/uL; ABSOLUTE EOSINOPHIL (72 h, time 3 day): 14 CELLS/uL; ABSOLUTE LYMPHOCYTE (72 h, time 3 day): 11144.67 CELLS/uL; ABSOLUTE MONOCYTE (72 h, time 3 day): 22.5 CELLS/uL; ABSOLUTE SEGMENTED NEUTROPHIL (72 h, time 3 day): 535.5 CELLS/uL; BASOPHIL (72 h, time 3 day): 0%; EOSINOPHIL (72 h, time 3 day): 0.17%; ERYTHROCYTE COUNT (72 h, time 3 day): 5.08 x10E6/uL; HEMATOCRIT (72 h, time 3 day): 32.32%; HEMOGLOBIN (72 h, time 3 day): 12.87 G/DL; LEUKOCYTE COUNT (72 h, time 3 day): 11.72 x10E3/uL; LYMPHOCYTE (72 h, time 3 day): 94.67%; MEAN CORPUSCULAR HEMOGLOBIN (72 h, time 3 day): 25.37 pg; MEAN CORPUSCULAR HEMOGLOBIN CONCENTRATION (72 h, time 3 day): 39.85 G/DL; MEAN CORPUSCULAR VOLUME (72 h, time 3 day): 63.58 fL; MONOCYTE (72 h, time 3 day): 0.17%; NEUTROPHIL (72 h, time 3 day): 5%; NUCLEATED RED BLOOD CELLS (72 h, time 3 day): 0 /100WBC; PLATELET COUNT (72 h, time 3 day): 1084 x10E3/uL; ALANINE AMINOTRANSFERASE (72 h, time 3 day): 67.5 u/L; ALBUMIN (72 h, time 3 day): 4.02 G/DL; ALKALINE PHOSPHATASE (72 h, time 3 day): 374.17 u/L; ASPARTATE AMINOTRANSFERASE (72 h, time 3 day): 83.5 u/L; BLOOD UREA NITROGEN (72 h, time 3 day): 14.5 mg/dL; CARBON DIOXIDE (72 h, time 3 day): 30 mmol/L; CHLORIDE (72 h, time 3 day): 100.5 MEQ/L; CHOLESTEROL (72 h, time 3 day): 71.33 mg/dL; CREATINE PHOSPHOKINASE (72 h, time 3 day): 268.33 u/L; CREATININE (72 h, time 3 day): 0.16 mg/dL; GLUCOSE (72 h, time 3 day): 170.5 mg/dL; LACTATE DEHYDROGENASE (72 h, time 3 day): 81.17 u/L; LIPASE (72 h, time 3 day): 16.67 u/L; PHOSPHORUS (72 h, time 3 day): 10.07 mg/dL; POTASSIUM (72 h, time 3 day): 5.03 MEQ/L; SODIUM (72 h, time 3 day): 142.92 MEQ/L; TOTAL BILIRUBIN (72 h, time 3 day): 0.17 mg/dL; TOTAL PROTEIN (72 h, time 3 day): 5.63 G/DL; URIC ACID (72 h, time 3 day): 0.5 mg/dL; ABSOLUTE BASOPHIL (120 h, time 5 day): 0 CELLS/uL; ABSOLUTE EOSINOPHIL (120 h, time 5 day): 37.5 CELLS/uL; ABSOLUTE LYMPHOCYTE (120 h, time 5 day): 8049.5 CELLS/uL; ABSOLUTE MONOCYTE (120 h, time 5 day): 82.83 CELLS/uL; ABSOLUTE SEGMENTED NEUTROPHIL (120 h, time 5 day): 646.83 CELLS/uL; BASOPHIL (120 h, time 5 day): 0%; EOSINOPHIL (120 h, time 5 day): 0.5%; ERYTHROCYTE COUNT (120 h, time 5 day): 5.36 x10E6/uL; HEMATOCRIT (120 h, time 5 day): 33.9%; HEMOGLOBIN (120 h, time 5 day): 13.02 G/DL; LEUKOCYTE COUNT (120 h, time 5 day): 8.82 x10E3/uL; LYMPHOCYTE (120 h, time 5 day): 90.17%; MEAN CORPUSCULAR HEMOGLOBIN (120 h, time 5 day): 24.32 pg; MEAN CORPUSCULAR HEMOGLOBIN CONCENTRATION (120 h, time 5 day): 38.42 G/DL; MEAN CORPUSCULAR VOLUME (120 h, time 5 day): 63.32 fL; MONOCYTE (120 h, time 5 day): 1.17%; NEUTROPHIL (120 h, time 5 day): 8.17%; NUCLEATED RED BLOOD CELLS (120 h, time 5 day): 0.17 /100WBC; PLATELET COUNT (120 h, time 5 day): 1231.5 x10E3/uL; ALANINE AMINOTRANSFERASE (120 h, time 5 day): 62 u/L; ALBUMIN (120 h, time 5 day): 3.97 G/DL; ALKALINE PHOSPHATASE (120 h, time 5 day): 303.67 u/L; ASPARTATE AMINOTRANSFERASE (120 h, time 5 day): 84.5 u/L; BLOOD UREA NITROGEN (120 h, time 5 day): 14.83 mg/dL; CARBON DIOXIDE (120 h, time 5 day): 31.83 mmol/L; CHLORIDE (120 h, time 5 day): 97 MEQ/L; CHOLESTEROL (120 h, time 5 day): 68.83 mg/dL; CREATINE PHOSPHOKINASE (120 h, time 5 day): 411.33 u/L; CREATININE (120 h, time 5 day): 0.16 mg/dL; GLUCOSE (120 h, time 5 day): 170.17 mg/dL; LACTATE DEHYDROGENASE (120 h, time 5 day): 88.5 u/L; LIPASE (120 h, time 5 day): 9.5 u/L; PHOSPHORUS (120 h, time 5 day): 9.98 mg/dL; POTASSIUM (120 h, time 5 day): 5.72 MEQ/L; SODIUM (120 h, time 5 day): 141.62 MEQ/L; TOTAL BILIRUBIN (120 h, time 5 day): 0.1 mg/dL; TOTAL PROTEIN (120 h, time 5 day): 5.67 G/DL; URIC ACID (120 h, time 5 day): 0.52 mg/dL
